Where a name gives a salt, the structure may show the parent alone. Read-outs that look alike come from different tables or passages of the source.
How the values were obtained:
[1] = pH value of 1% solution/suspension by pH meter; format: physicochemical; settings: n=6
Description: (§1) In a preferred embodiment of the present invention, the S-(carboxymethyl)-L-cysteine ammonium salt monohydrate crystalline compound is a soluble double salt formed by the acidity of the carboxyl thereof and the alkalinity of the aqueous ammonia. […] In addition, the medicine, after being absorbed by the body, can be hydrolysed into S-(carboxymethyl)-L-cysteine and ammonium chloride with the effect of gastric acid, which can not only reduce the irritation of S-(carboxymethyl)-L-cysteine to the gastrointestinal tract, but also neutralize the excessive gastric acid. After the S-(carboxymethyl)-L-cysteine ammonium salt monohydrate crystal is hydrolysed, the S-(carboxymethyl)-L-cysteine in the body continues giving play to pharmacological effects thereof. At the same time, the ammonium chloride obtained from hydrolysis has chemical irritation to the mucous membrane, which can reflectively increase the amount of sputum to easily remove the sputum, and is conducive to removing a small amount of sputum which is difficult to be coughed out, thereby enhancing the sputum-resolving effect of the S-(carboxymethyl)-L-cysteine, and improving the curative effect. The S-(carboxymethyl)-L-cysteine ammonium salt is safe, has small side effect, and can be used for patients suffering from chronic obstructive pulmonary disease and the like to take for a long time.

Water solubility = format: physicochemical
Description: as §1

rat COPD model [2] = assay: Rat COPD model: inflammation indexes (TNF-α, IL-8, IL-6); format: in vivo; settings: x ± SD
Description: (§2) 1.1 Preparation of Rat COPD Models
(§3) A method of establishing a rat COPD model by fumigation plus endotoxin lipopolysaccharide (LPS) endotracheal drop, which is commonly used at home and abroad at present was adopted. The period is 3 months (90 days). Specific method: on the 1st, the 15th, the 29th, the 43rd, the 57th, the 71st and the 85th days of the test, the rats were anesthetized with ethylether, the roots of tongues of the rats were pulled out, and LPS (200 ug/200 ul) was dripped through tracheas by bend gavage needle heads. The rats of the normal group were dripped with physiological saline of equal amount by the same method, and weren't fumigated. The rats of the other five groups were fumigated in a self-made fumigation bin. One side of the fumigation bin was externally connected with a negative pressure pump, and the top thereof was connected with a port for inserting cigarettes. With the negative press pump turned on, the cigarettes were lit, and the smoke of the cigarettes was absorbed into the fumigation bin. In order to prevent the animals from death caused by anoxia, 12 cigarettes were lit every time, and the lid of the fumigation bin was opened 20 min after fumigation for letting in fresh air. The operation was performed 1 h/3 times/day, with the LPS (200 ug/200 ul) being dripped through the tracheas by bend gavage needle heads.
(§4) 1.2 Pharmacological Intervention
(§5) The test was 90 days long. The pharmacological intervention was started from the 15th day, the rats of the positive group were perfused with carbocisteine, the rats of the low, medium and high test groups were perfused with different doses of test medicines, and the rats of the model group and the normal group were perfused with physiological saline of equal amount.
(§6) 1.3 Indexes Determination
(§7) Blood was taken from the orbit of each rat on the second day after the test was over, serum was separated, a complete stomach was cut and washed, lung tissue was preserved, the stomach and the right upper lung were left for pathobiology test, after the rest of the lung was subjected to lung tissue homogenate, the indexes of oxidization and antioxidation, the contents of lipid peroxide (LPO), malondialdehyde (MDA) and reduced glutathione (GSH), the activity of superoxide dismutase (SOD) and the concentration of inflammatory medium TNF-α, IL-8 and IL-6 were detected.

rat COPD model [3] = assay: Rat COPD model: oxidization indexes (LPO, MDA); format: in vivo; settings: x ± SD
Description: as §2, §3, §4, §5, §6, §7

rat COPD model [4] = assay: Rat COPD model: antioxidation indexes (GSH, SOD); format: in vivo; settings: x ± SD
Description: as §2, §3, §4, §5, §6, §7

gastric mucosa of rats = assay: Rat COPD model: pathological changes of stomachs; format: in vivo; settings: perfused from the 15th day of the 90 day test
Description: A method of establishing a rat COPD model by fumigation plus endotoxin lipopolysaccharide (LPS) endotracheal drop, which is commonly used at home and abroad at present was adopted. The period is 3 months (90 days). Specific method: on the 1st, the 15th, the 29th, the 43rd, the 57th, the 71st and the 85th days of the test, the rats were anesthetized with ethylether, the roots of tongues of the rats were pulled out, and LPS (200 ug/200 ul) was dripped through tracheas by bend gavage needle heads. The rats of the normal group were dripped with physiological saline of equal amount by the same method, and weren't fumigated. The rats of the other five groups were fumigated in a self-made fumigation bin. […]
as §7

[5] = tested on: patients suffering from COPD; settings: 1500 mg/d, 12 months; cited from earlier work
[6] = tested on: patients suffering from COPD; settings: 142 patients; 1500 mg/d, 12 months; cited from earlier work
[7] = tested on: chronic obstructive pulmonary disease; settings: 1500 mg/d, 12 months; cited from earlier work
[8] = Solubility in several solvents (25° C.); format: physicochemical
[9] = Storage at room temperature (character, moisture absorption); format: physicochemical; settings: stored for a period of time at room temperature
Description: The S-(carboxymethyl)-L-cysteine ammonium salt monohydrate crystals of the present invention have a relatively uniform particle size distribution.

N[C@@H](CSCC(=O)O)C(=O)O [carbocisteine, S-(carboxymethyl)-L-cysteine, reference compound]
pH ([1]; 1% suspension per Chinese Pharmacopoeia (2010 Edition)): 2.93±0.20
water solubility (Water solubility): poorer water solubility
IL-6 Lung tissue (rat COPD model [2]; positive group): 14.24 ± 6.26 pg/mL
IL-6 Serum (rat COPD model [2]; positive group): 8.13 ± 2.87 pg/mL
IL-8 Lung tissue (rat COPD model [2]; positive group): 10.91 ± 2.30 pg/mL
IL-8 Serum (rat COPD model [2]; positive group): 7.87 ± 3.08 pg/mL
TNF-α Lung tissue (rat COPD model [2]; positive group): 25.17 ± 8.28 pg/mL
TNF-α Serum (rat COPD model [2]; positive group): 18.37 ± 4.55 pg/mL
LPO Lung tissue (rat COPD model [3]; positive group): 17.44 ± 2.43 nmol/mL
LPO Serum (rat COPD model [3]; positive group): 5.12 ± 1.09 nmol/mL
MDA Lung tissue (rat COPD model [3]; positive group): 4.76 ± 0.70 µmol/mL
MDA Serum (rat COPD model [3]; positive group): 7.34 ± 2.19 µmol/mL
GSH Lung tissue (rat COPD model [4]; positive group): 107.26 ± 23.52 µmol/L
GSH Serum (rat COPD model [4]; positive group): 132.31 ± 24.04 µmol/L
SOD Lung tissue (rat COPD model [4]; positive group): 62.28 ± 15.12 U/mL
SOD Serum (rat COPD model [4]; positive group): 96.16 ± 23.03 U/mL
Pathological changes of stomachs / irritation to the gastrointestinal tract (gastric mucosa of rats): mild irritations such as mild hyperaemia and edema, and larger inflammatory cell infiltration
Pathological changes of stomachs / irritation to the gastrointestinal tract (gastric mucosa of rats; listed as positive group): mild edema and hyperemia and serious inflammatory cell infiltration in the gastric mucosa layers
frequency of catching colds and acute exacerbation of COPD [5]: the frequency of catching colds is reduced and the acute exacerbation of COPD is relieved
prevention of acute COPD [6]: prevented from acute COPD
annual acute morbidity per person reduced by [7]: 24.5%

N[C@@H](CSCC(=O)O)C(=O)O [L-ammonium, S-(carboxymethyl)-L-cysteine ammonium salt monohydrate]
Solubility ([8]; Absolute ethyl alcohol): Very slightly soluble
Solubility ([8]; Acetone): Very slightly soluble
Solubility ([8]; Acetonitrile): Very slightly soluble
Solubility ([8]; Isopropanol): Very slightly soluble
Solubility ([8]; Methanol): Very slightly soluble
Solubility ([8]; N,N-Dimethylformamide): Very slightly soluble
pH value ([1]; 1% compound, pH meter): 6.60±0.36
water solubility (Water solubility; listed as S-(carboxymethyl)-L-cysteine ammonium salt monohydrate crystal, ammonium salt monohydrate): extremely easily soluble in water
absorption of moisture [9]: insusceptible to absorption of moisture
character changes after storage [9]: no obvious character changes
IL-6 Lung tissue (rat COPD model [2]; high dose group): 9.28 ± 4.49 pg/mL
IL-6 Serum (rat COPD model [2]; high dose group): 5.83 ± 1.51 pg/mL
IL-8 Lung tissue (rat COPD model [2]; high dose group): 8.17 ± 1.06 pg/mL
IL-8 Serum (rat COPD model [2]; high dose group): 5.36 ± 1.51 pg/mL
TNF-α Lung tissue (rat COPD model [2]; high dose group): 15.15 ± 4.20 pg/mL
TNF-α Serum (rat COPD model [2]; high dose group): 13.02 ± 5.32 pg/mL
IL-6 Lung tissue (rat COPD model [2]; low dose group): 14.72 ± 5.51 pg/mL
IL-6 Serum (rat COPD model [2]; low dose group): 7.02 ± 3.30 pg/mL
IL-8 Lung tissue (rat COPD model [2]; low dose group): 9.97 ± 1.24 pg/mL
IL-8 Serum (rat COPD model [2]; low dose group): 7.90 ± 2.16 pg/mL
TNF-α Lung tissue (rat COPD model [2]; low dose group): 20.60 ± 9.60 pg/mL
TNF-α Serum (rat COPD model [2]; low dose group): 17.98 ± 3.94 pg/mL
IL-6 Lung tissue (rat COPD model [2]; medium dose group): 12.91 ± 2.47 pg/mL
IL-6 Serum (rat COPD model [2]; medium dose group): 6.24 ± 2.12 pg/mL
IL-8 Lung tissue (rat COPD model [2]; medium dose group): 8.66 ± 2.54 pg/mL
IL-8 Serum (rat COPD model [2]; medium dose group): 6.30 ± 2.17 pg/mL
TNF-α Lung tissue (rat COPD model [2]; medium dose group): 19.98 ± 8.78 pg/mL
TNF-α Serum (rat COPD model [2]; medium dose group): 15.11 ± 4.38 pg/mL
LPO Lung tissue (rat COPD model [3]; high dose group): 13.51 ± 1.66 nmol/mL
LPO Serum (rat COPD model [3]; high dose group): 3.22 ± 0.85 nmol/mL
MDA Lung tissue (rat COPD model [3]; high dose group): 3.68 ± 0.87 µmol/mL
MDA Serum (rat COPD model [3]; high dose group): 5.88 ± 1.26 µmol/mL
LPO Lung tissue (rat COPD model [3]; low dose group): 16.24 ± 2.32 nmol/mL
LPO Serum (rat COPD model [3]; low dose group): 4.75 ± 1.30 nmol/mL
MDA Lung tissue (rat COPD model [3]; low dose group): 4.03 ± 1.27 µmol/mL
MDA Serum (rat COPD model [3]; low dose group): 7.28 ± 1.33 µmol/mL
LPO Lung tissue (rat COPD model [3]; medium dose group): 15.58 ± 2.73 nmol/mL
LPO Serum (rat COPD model [3]; medium dose group): 3.77 ± 1.15 nmol/mL
MDA Lung tissue (rat COPD model [3]; medium dose group): 3.88 ± 0.59 µmol/mL
MDA Serum (rat COPD model [3]; medium dose group): 6.20 ± 3.23 µmol/mL
GSH Lung tissue (rat COPD model [4]; high dose group): 141.69 ± 28.40 µmol/L
GSH Serum (rat COPD model [4]; high dose group): 232.93 ± 40.49 µmol/L
SOD Lung tissue (rat COPD model [4]; high dose group): 77.56 ± 18.09 U/mL
SOD Serum (rat COPD model [4]; high dose group): 140.69 ± 32.13 U/mL
GSH Lung tissue (rat COPD model [4]; low dose group): 113.59 ± 24.32 µmol/L
GSH Serum (rat COPD model [4]; low dose group): 140.64 ± 19.66 µmol/L
SOD Lung tissue (rat COPD model [4]; low dose group): 60.38 ± 16.04 U/mL
SOD Serum (rat COPD model [4]; low dose group): 90.80 ± 15.13 U/mL
GSH Lung tissue (rat COPD model [4]; medium dose group): 124.19 ± 30.78 µmol/L
GSH Serum (rat COPD model [4]; medium dose group): 175.61 ± 31.11 µmol/L
SOD Lung tissue (rat COPD model [4]; medium dose group): 70.71 ± 11.16 U/mL
SOD Serum (rat COPD model [4]; medium dose group): 102.98 ± 23.26 U/mL
